{
  "source": "patent US7582778B2",
  "about": "“Podophyllotoxin” (Universitatsklinikum Charite der Humboldt-Universitat zu, priority 2001, dated 2009)",
  "key": {"[1]": {"settings": "for kobs: PBS buffer", "protocol": "ProVP-16 I was incubated in THF/2% HCl and samples were periodically analyzed by HPLC at the indicated time points (A). Hydrolytic activation of ProVP-16 II was determined in phosphate buffered saline (PBS) a t the pH levels indicated (B). ProVP-16 I (3 mM) was incubated in PBS solutions and samples were periodically analyzed by HPLC. The percent conversion was calculated from areas under the curve determined by peak integration."}, "SW480 colon carcinoma": {"tested_on": "SW480 colon carcinoma", "settings": "SW480, vs VP-16", "protocol": "(§1) The cytotoxic effect of ProVP-16 I and II was evaluated against a panel of cell lines by triplicate determinations of IC50 concentrations for both prodrugs against each cell line (A). […] Bars represent mean values ±SD."}, "Molt-3 T-cell leukemia": {"tested_on": "Molt-3 T-cell leukemia", "assay": "XTT cytotoxicity assay, Molt-3", "protocol": "as §1\nAt the time points indicated, cell viability was determined in triplicate by the XTT assay as described in Materials and Methods. […] Results were plotted as a semilogarithmic function of drug concentration."}, "[2]": {"tested_on": "NXS2 murine neuroblastoma", "assay": "XTT cytotoxicity assay, NXS2", "type": "cell-based", "protocol": "as §1"}, "[3]": {"tested_on": "CHO Chinese hamster ovary", "assay": "XTT cytotoxicity assay, CHO", "type": "cell-based", "procedure": "(§4) Cytotoxicity assay: Cytotoxicity was determined by the XTT tetrazolium/formazan assay as previously described (Scudiero D A, Shoemaker R H, Paull K D, et al. Evaluation of a soluble tetrazolium/formazan assay for cell growth and drug sensitivity in culture using human and other tumor cell lines. Cancer Res. 1988; 48:4827-4833.). Briefly, cells were seeded in 96 flat bottom well plates at a density of 10^4/well in 100 μl media and exposed to drug concentrations ranging from 10^−4 to 10^−12 M. At the indicated time points (6-72 hr), cell viability was assessed by adding 50 μl XTT-reagent (1 mg/ml in serum free RPMI) activated with 0.2% v/v PMS (1.53 mg/ml in PBS) incubated at 37° C. for 4 h. Plates were analyzed in a Thermomax (Molecular Devices) micro plate reader at 450 nm. OD values were plotted as a function of drug concentration and the curves were integrated using the softmax software to obtain the IC50 concentration values."}, "[4]": {"tested_on": "Hamms human colon carcinoma cells", "assay": "XTT cytotoxicity assay, Hamms", "type": "cell-based", "procedure": "as §4"}, "[5]": {"tested_on": "multidrug resistant MOVP-3 cells", "assay": "XTT cytotoxicity assay, multidrug resistant MOVP-3 subline", "type": "cell-based, human", "protocol": "MDR-1 gene expression was determined by RT-PCR analysis on total RNA isolated from MOVP-3 and Molt-3 cells, respectively (6A). Expression of GAPDH was used as a control for the integrity of the cDNA. […] (6C) Cross-resistance of MOVP-3 cells against MDR-1 drugs (doxorubicin, melphalan, vinblastine and paclitaxel) was calculated from IC50 values (n=3) as described in 6B).\nCells: Tumor cell lines were grown in RPMI, 10% FCS (Nalm-6, Reh, Molt-3, Jurkat, HL-60, K562, HeLa, CEM, A2780, SW480) or DMEM, 10% FCS (NXS2, SK-N-SH, HT-29) in the presence of 100 IU/ml penicillin/streptomycin (P/S) and propagated under standard tissue culture conditions (5% CO2, 37° C.). All cell lines were obtained from ATCC, Rockville, Md. except NXS2 which was previously described (Lode H N, Xiang R, Varki N M, Dolman C S, Gillies S D, Reisfeld R A. Targeted interleukin-2 therapy for spontaneous neuroblastoma metastases to bone marrow. Journal of the National Cancer Institute. 1997; 89:1586-1594.) and VCR100, ADR5000 and A2780 which were kindly provided by James Beck, Greifswald, Germany (Beck J, Handgretinger R, Dopfer R, Klingebiel T, Niethammer D, Gekeler V. Expression of mdrl, mrp, topoisomerase II alpha/beta, and cyclin A in primary or relapsed states of acute lymphoblastic leukaemias. Br J Haematol. 1995; 89:356-363; Beck J F, Bohnet B, Brugger D, et al. Expression analysis of protein kinase C isozymes and multidrug resistance associated genes in ovarian cancer cells. Anticancer Res. 1998; 18:701-705.)."}, "MOVP-3 cells": {"tested_on": "MOVP-3 cells", "assay": "Cell cycle analysis (propidium iodide, FACS), MOVP-3", "type": "cell-based, human", "settings": "0.5 μM, up to 72 h", "protocol": "(§2) Cells were harvested at indicated time points (n=3), fixed, stained with propidium iodide and analyzed by FACS as described in Materials and Methods. Per cent cells in pre G1 (apoptosic cells) were calculated from DNA histograms.\n(§3) Cell cycle analysis: Distinct phases of the cell cycle were determined in a standard assay using propidium iodide. […] At indicated time points, cells were harvested and fixed in 4.5 ml ethanol (75%, −20° C.) for at least 12 h (4° C.). Cells were washed in PBS (pH 7.4) and resuspended in 250 μl PBS containing RNAse (0.3 mg/ml) and propidium iodide (50 μg/ml) and incubated in the dark (30 min, RT). The DNA histograms defining distinct phases of the cell cycle were subsequently determined in duplicates by FACS analysis and average results were expressed as per cent."}, "Molt-3 parental cells": {"tested_on": "Molt-3 parental cells", "assay": "Cell cycle analysis (propidium iodide, FACS), Molt-3", "type": "cell-based, human", "settings": "Molt-3 cells, 0.5 μM, up to 72 h", "protocol": "as §2, §3"}, "[6]": {"protocol": "The body weight was determined for each animal over time and calculated as per cent of total weight observed on day 0. An event as indicated by Kaplan Maier plots is defined by loss of body weight greater than 20%.\nBody weights and survival were monitored over time."}, "MOVP-3 primary tumors": {"tested_on": "MOVP-3 primary tumors", "assay": "Anti-tumor effect in a multidrug resistant T-cell leukemia xenograft model", "type": "in vivo, SCID mice", "protocol": "The anti-tumor effect of ProVP-16 II therapy was determined in a multidrug resistant xenograft model (B,C). SCID mice (n=7) were injected s.c. with 5×10^6 MOVP-3 cells and primary tumors of 250 mm^3 average size were established 55 days after inoculation. […] Tumor growth was monitored by microcaliper measurements and tumor size was calculated as described in Materials and Methods (B). […] The body weight of treated animals was determined over time and calculated as per cent of body weight on day 57 (C).\nAnti-tumor effect in a T-cell leukemia xenograft model: Primary tumors were induced by injection of 5×10^6 MOVP 3 cells in 100 μl PBS (pH 7.4) into the skin of the left lateral flank of each SCID mouse. Established primary tumors were palpable 55 days after injection. […] Each mouse received a total of 7 injections on days 55,57,59,69,71,87,90 after tumor cell inoculation. Primary tumor size was determined over time by micro caliper measurements and volumes were calculated according to ½×with^2×length. Body weight was determined on a standard digital scale."}, "Water solubility": {"assay": "Water solubility", "type": "physicochemical", "settings": "compared with ProVP-16 I"}, "[7]": {"settings": "human serum, pH 7.3, 37° C."}, "[8]": {"tested_on": "porcine liver carboxyl ester hydrolase"}, "Molt-3/MDR-1 cells": {"tested_on": "Molt-3/MDR-1 cells", "settings": "stable transfection with pMDR-IRESpuro", "procedure": "Stable transfection of MDR-1: The MDR-1 cDNA was kindly provided in a pUC based plasmid by C. Baum, University of Hamburg. For mammalian expression, the MDR-1 cDNA was cloned into the bicistronic eukaryotic expression plasmid pIRESpuro using NotI and BamHI restriction sites. pMDR-IRESpuro was transfected into Molt-3 cells by electroporation (960 μF, 250V). Stable transfectants were selected with 300 ng/ml puromycin.\nOD values were plotted as a function of drug concentration and the curves were integrated using the softmax software to obtain the IC50 concentration values."}},
  "note": "Read-outs that look alike come from different tables or passages of the source.",
  "data": [
    {"smiles": "COc1cc(C2c3cc4c(cc3C(OC3OC5COC(C)OC5C(O)C3O)C3COC(=O)C23)OCO4)cc(OC)c1OC(=O)OCC(O)CO", "note": "(stereo not shown) [ProVP-16 II]", "values": [
      {"measurement": "kobs", "setting": "[1]; pH 5.0-7.3, 37° C.", "value": "no conversion"},
      {"measurement": "kobs", "setting": "[1]; pH 8.0, 37° C.", "value": "3.201 ± 0.428 10^−3-min^−1"},
      {"measurement": "kobs", "setting": "[1]; pH 8.8, 37° C.", "value": "7.142 ± 0.351 10^−3-min^−1"},
      {"measurement": "kobs", "setting": "[1]; pH 10.5, 37° C.", "value": "100.01 ± 12.72 10^−3-min^−1"},
      {"measurement": "conversion rate", "setting": "[1]; pH 7.4", "value": "< 5", "unit": "%"},
      {"measurement": "IC50 fold lower than parent compound", "setting": "SW480 colon carcinoma", "value": 1000, "unit": "fold"},
      {"measurement": "cytotoxic effects at early incubation", "setting": "Molt-3 T-cell leukemia; Molt-3, up to 12 h of incubation", "value": "absence of cytotoxic effects"},
      {"measurement": "IC50", "setting": "Molt-3 T-cell leukemia; Molt-3 cells, resistance experiment (FIG. 4B)", "value": 20, "unit": "nM"},
      {"measurement": "response to proetoposides compared with etoposide", "setting": "[2]", "value": "responded equally well"},
      {"measurement": "response to proetoposides compared with etoposide", "setting": "[3]", "value": "responded equally well"},
      {"measurement": "response to proetoposides compared with etoposide", "setting": "[4]", "value": "responded equally well"},
      {"measurement": "resistance of MOVP-3 cells (IC50 MOVP-3÷IC50 Molt-3)", "setting": "[5]", "value": "no significant difference"},
      {"measurement": "IC50", "setting": "[5]; MOVP-3 cells", "value": 20, "unit": "nM"},
      {"measurement": "induction of apoptosis (pre-G1 peak)", "setting": "MOVP-3 cells", "value": "very effective in inducing a steady increase in the pre-G1 peak"},
      {"measurement": "induction of apoptosis (pre-G1 peak)", "setting": "Molt-3 parental cells", "value": "Induction of apoptosis was also demonstrated"},
      {"measurement": "survival / tolerability", "setting": "[6]; 20 mg/kg i.p.", "value": "well tolerated with no death"},
      {"measurement": "survival / tolerability", "setting": "[6]; 60 mg/kg i.p.", "value": "well tolerated with no death"},
      {"measurement": "maximum tolerated dose", "setting": "[6]; defined by a decrease in body weight <20%", "value": 60, "unit": "mg/kg"},
      {"measurement": "decrease of systemic toxicity by the prodrug design, factor", "setting": "[6]; mouse, in vivo", "value": "≥ 3"},
      {"measurement": "increase in the maximum tolerated dose over the parental compound", "setting": "[6]; vs VP-16", "value": "greater than 3 fold"},
      {"measurement": "anti-tumor response", "setting": "MOVP-3 primary tumors; 15 mg/kg i.p.", "value": "dramatic reduction in primary tumor growth"},
      {"measurement": "transient average weight loss", "setting": "MOVP-3 primary tumors; 15 mg/kg i.p.", "value": "no measurable weight loss"},
      {"measurement": "time the regression was stable", "setting": "MOVP-3 primary tumors; 45 mg/kg i.p.", "value": "over 2 months"},
      {"measurement": "transient weight loss", "setting": "MOVP-3 primary tumors; 45 mg/kg i.p.", "value": 6, "unit": "%"},
      {"measurement": "animals with regression of established primary tumors", "setting": "MOVP-3 primary tumors; 45 mg/kg i.p., 10 days after initiation of treatment", "value": "7/7"},
      {"measurement": "water solubility", "setting": "Water solubility", "value": "higher water solubility"},
      {"measurement": "t1/2", "setting": "[7]; listed as ProPV-16 II", "value": 56.1, "unit": "min"},
      {"measurement": "t1/2", "setting": "[7]; listed as Prodrug II", "value": 56.07, "unit": "min"},
      {"measurement": "kobs", "setting": "[8]; pH 7.3", "value": "1.348 ± 0.081 10^−3-min^−1"},
      {"measurement": "t1/2", "setting": "[8]; porcine liver carboxyl ester hydrolase, pH 7.3, 37° C.", "value": 514.1, "unit": "min"},
      {"measurement": "sensitivity / resistance of Molt-3/MDR-1 cells", "setting": "Molt-3/MDR-1 cells", "value": "remained fully sensitive"}
    ]}
  ]
}
